SMILES strings stand for the structures.

One assay relates to ECHOR. As to the kind of experiment: Example II: in-water applied weed control, transplanted paddy rice, greenhouse. The assay is classed as in vivo, Echinochloa oryzoides (Ard.) Fritsch (early watergrass). Conditions: Echinochloa oryzoides, read-out: Visual Weed Control ECHOR Obs. The protocol:
(§1) Weed seeds or nutlets of the desired test plant species were planted in puddled soil (mud) prepared by mixing a shredded, non-sterilized mineral soil (50.5 percent silt, 25.5 percent clay, and 24 percent sand, with a pH of about 7.6 and an organic matter content of about 2.9 percent) and water at a 1:1 volumetric ratio. The prepared mud was dispensed in 365 mL aliquots into 16-ounce (oz.) non-perforated plastic pots with a surface area of 86.59 square centimeters (cm^2) leaving a headspace of 3 centimeters (cm) in each pot. Mud was allowed to dry overnight prior to planting or transplanting. Rice seeds were planted in Sun Gro MetroMix® 306 planting mixture, which typically has a pH of 6.0 to 6.8 and an organic matter content of about 30 percent, in plastic plug trays. Seedlings at the second or third leaf stage of growth were transplanted into 840 mL of mud contained in 32-oz. non-perforated plastic pots with a surface area of 86.59 cm^2 4 days prior to herbicide application. The paddy was created by filling the headspace of the pots with 2.5 to 3 cm of water. When required to ensure good germination and healthy plants, a fungicide treatment and/or other chemical or physical treatment was applied. The plants were grown for 4-22 days in a greenhouse with an approximate 14 hr photoperiod which was maintained at about 29′C during the day and 26° C. during the night. Nutrients were added as Osmocote® (19:6:12, N:P:K+ minor nutrients) at 2 g per 16-oz. pot and 4 g per 32-oz. pot. Water was added on a regular basis to maintain the paddy flood, and supplemental lighting was provided with overhead metal halide 1000-Watt lamps as necessary. The plants were employed for testing when they reached the first through fourth true leaf stage.
(§2) Treatments consisted of the acid or esters of 4-amino-3-chloro-5-fluoro-6-(4-chloro-2-fluoro-3-methoxy-phenyl)pyridine-2-carboxylic acid (compound A) each formulated as an SC (suspension concentrate) and various herbicidal components alone and in combination. Forms of compound A were applied on an acid equivalent basis.
(§3) The herbicidal components were applied on an active ingredient basis and included very long chain fatty acid (VLCFA) synthesis-inhibiting and fatty acid/lipid synthesis-inhibiting herbicides acetochlor (technical grade material), acetochlor+dichlormid formulateded as Topnotch®, pretilachlor (technical grade material), butachlor formulated as Butachlor EC, fentrazamide formulated as Fentrazamide EC, thiobencarb formulated as Bolero® 8EC, cafenstrole formulated as Himeadow® WP or Lapost® Flowable, benfuresate formulated as Full Shot®, anilofos (technical grade material), mefenacet (technical grade material), molinate (technical grade material), and thenylchlor (technical grade material).
(§4) Treatment requirements for each compound or herbicidal component were calculated based upon the rates being tested, the concentration of active ingredient or acid equivalent in the formulation, an application volume of 2 mL per component per pot, and an application area of 86.59 cm^2 per pot.
(§5) For formulated compounds, a measured amount was placed in an individual 100 or 200 mL glass vial and was dissolved in a volume of 1.25% (v/v) Agri-Dex® crop oil concentrate to obtain application solutions.
(§6) For technical grade compounds, a weighed amount was placed in an individual 100 to 200 mL glass vial and was dissolved in a volume of acetone to obtain concentrated stock solutions. […] The concentrated stock solutions obtained were diluted with an equivalent volume of an aqueous mixture containing 2.5% (v/v) crop oil concentrate so that the final application solutions contained 1.25% (v/v) crop oil concentrate.
(§7) Applications were made by injecting with a pipetter appropriate amounts of the application solutions, individually and sequentially, into the aqueous layer of the paddy. Control plants were treated in the same manner with the solvent blank. […]

Another assay relates to BRAPP. As to the kind of experiment: Example I: postemergence foliar-applied weed control, direct seeded rice weeds, greenhouse. It counts as in vivo. The settings on record: foliar. The text has this: (§8) Seeds or nutlets of the desired test plant species were planted in a soil matrix prepared by mixing a loam or sandy loam soil (e.g., 28.6 percent silt, 18.8 percent clay, and 52.6 percent sand, with a pH of about 5.8 and an organic matter content of about 1.8 percent) and calcareous grit in an 80 to 20 ratio. The soil matrix was contained in plastic pots with a volume of 1 quart and a surface area of 83.6 square centimeters (cm^2). When required to ensure good germination and healthy plants, a fungicide treatment and/or other chemical or physical treatment was applied. The plants were grown for 8-22 days in a greenhouse with an approximate 14 hr photoperiod which was maintained at about 29° C. during the day and 26° C. during the night. Nutrients (Peters Excel® 15-5-15 5-Ca 2-Mg and iron chelate) were applied in the irrigation solution as needed and water was added on a regular basis. Supplemental lighting was provided with overhead metal halide 1000-Watt lamps as necessary. The plants were employed for testing when they reached the first through fourth true leaf stage.
(§9) Treatments consisted of the acid or esters of 4-amino-3-chloro-5-fluoro-6-(4-chloro-2-fluoro-3-methoxy-phenyl)pyridine-2-carboxylic acid (Compound A), each formulated as an SC (suspension concentrate), and various herbicidal components alone and in combination. Forms of compound A were applied on an acid equivalent basis.
(§10) Other herbicidal components were applied on an active ingredient basis and included very long chain fatty acid (VLCFA) synthesis-inhibiting and fatty acid/lipid synthesis-inhibiting herbicides acetochlor (technical grade material), acetochlor+dichlormid formulated as Topnotch®, pretilachlor (technical grade material), butachlor formulated as Butachlor EC, fentrazamide formulated as Fentrazamide EC, thiobencarb formulated as Bolero® 8EC, cafenstrole formulated as Himeadow® WP or Lapost® Flowable, benfuresate formulated as Full Shot®, dimethenamid-P formulated as Outlook®, indanofan (technical grade material), flufenacet formulated as Define® DF, mefenacet (technical grade material), S-metolachlor formulated as Dual® II Magnum, pethoxamid formulated as Successor® 600, and pyroxasulfone (technical grade material).
(§11) Treatment requirements were calculated based upon the rates being tested, the concentration of active ingredient or acid equivalent in the formulation, and a 12 mL application volume at a rate of 187 L/ha.
(§12) For treatments comprised of formulated compounds, measured amounts of compounds were placed individually in 25 mL glass vials and diluted in a volume of 1.25% (v/v) Agri-Dex® crop oil concentrated to obtain 12× stock solutions. […] Application solutions were prepared by adding an appropriate amount of each stock solution (e.g., 1 mL) and diluted to the appropriate final concentrations with the addition of 10 mL of an aqueous mixture of 1.25% (v/v) crop oil concentrate so that the final spray solutions contained 1.25+/−0.05% (v/v) crop oil concentrate.
(§13) For treatments comprised of technical compounds, weighed amounts can be placed individually in 25 mL glass vials and dissolved in a volume of 97:3 v/v acetone/DMSO to obtain 12× stock solutions. […] Application solutions can be prepared by adding an appropriate amount of each stock solution (e.g., 1 mL) and diluted to the appropriate final concentrations with the addition of 10 mL of an aqueous mixture of 1.5% (v/v) crop oil concentrate so that the final spray solutions contain 1.25% (v/v) crop oil concentrate. When technical materials are used, the concentrated stock solutions can be added to the spray solutions so that the final acetone and DMSO concentrations of the application solutions are […], respectively. […]

In another assay the test system is ECHCG. Kind of assay: Example I: postemergence foliar-applied weed control, greenhouse. It counts as in vivo, Echinochloa crus-galli (L.) Beauv. (barnyardgrass). The settings on record: 59 gai/ha; foliar.
Description: as §8, §9, §10, §11, §12, §13

For another assay, the system named is LEFCH. Kind of assay: Example II: in-water applied weed control, transplanted paddy rice, greenhouse. The assay is classed as in vivo, Leptochloa chinensis (L.) Nees (Chinese sprangletop). The settings on record: 19 DAA. The protocol:
as §1, §2, §3, §4, §5, §6, §7

Consider `CCSC(=O)N1CCCCCC1` [Molinate, S-ethyl hexahydro-1H-azepine-1-carbothioate], for which the pest or weed control at 1400 g/ha in the assay with ECHOR (504 h, 1400 gai/ha, 21 DAA) was determined as 55%. In the assay on ECHOR (504 h, 2800 gai/ha, 21 DAA), the pest or weed control at 2800 g/ha amounted to 85%.

With `Cn1nc(C(F)(F)F)c(CS(=O)(=O)C2=NOC(C)(C)C2)c1OC(F)F` [Pyroxasulfone, 3-[[[5-(difluoromethoxy)-1-methyl-3-(trifluoromethyl)-1H-pyrazol-4-yl]methyl]sulfonyl]-4,5-dihydro-5,5-dimethylisoxazole], the results for the “Visual Weed Control (%) - 22 DAA BRAPP Obs” value with BRAPP (29.5 gai/ha), in the assay with BRAPP (59 gai/ha) and with BRAPP (118 gai/ha) were 0%, 0% and 20%, respectively. In addition, the “Visual Weed Control (%) - 22 DAA ECHCG Obs” value in the assay with ECHCG was 70%.

With `COc1ccsc1CN(C(=O)CCl)c1c(C)cccc1C` [Thenylchlor, 2-chloro-N-(2,6-dimethylphenyl)-N-[(3-methoxy-2-thienyl)methyl]acetamide], the pest or weed control at 135 g/ha in the assay with ECHOR (456 h, 135 gai/ha, 19 DAA) came out at 35%. Moreover, in the assay with ECHOR (456 h, 270 gai/ha, 19 DAA), the pest or weed control at 270 g/ha turned out to be 90%. Besides, the “Visual Weed Control LEFCH Obs” value with LEFCH (135 gai/ha) came to 15%; in the assay on LEFCH (270 gai/ha), 25%.

The values above are taken from patent publication US20130310256A1, “HERBICIDAL COMPOSITIONS COMPRISING 4-AMINO-3-CHLORO-5-FLUORO-6-(4-CHLORO-2-FLUORO-3-METHOXYPHENYL) PYRIDINE-2-CARBOXYLIC ACID OR A DERIVATIVE THEREOF AND VLCFA AND LIPID SYNTHESIS INHIBITING HERBICIDES” (DOW AGROSCIENCES LLC, priority 2008, published 2013).
